Tests used:
[1] = Inhibition of chymotrypsin-like activity of human 20S proteasome by spectrofluorimetry
[2] = Inhibition of chymotrypsin-like activity of 20S proteasome in human MOLT4 cells after 1 hr by […]; type: cell-based; details: MOLT-4, 1 h
Mus musculus [3] = experiment: Inhibition of chymotrypsin-like activity of 20S proteasome in BALB/c mouse adrenal gland 40 mg/kg, po after 1 hr; type: functional; parameters: scale not given: the % may be the effect or the level left
[4] = Cytotoxicity against human MESSA cells assessed as cell viability after 72 hrs by CellTiter-Glo luminescent assay; type: functional, cell-based; details: MES-SA
[5] = Cytotoxicity against multidrug resistance transporter expressing doxorubicin resistant human MESSA cells assessed as cell viability after 72 hrs by CellTiter-Glo luminescent assay; type: functional, cell-based; details: MES-SA
[6] = Chemical stability in simulated intestinal fluid assessed as compound remaining at 4 uM after 15 mins; type: physicochemical; details: read-out: Stability
[7] = Metabolic stability in mouse liver microsomes assessed as extraction ratio at 1 uM; type: ADME, Microsome
Mus musculus [8] = experiment: Inhibition of chymotrypsin-like activity of 20S proteasome in BALB/c mouse adrenal gland at 20 mg/kg, po after 1 hr; type: functional; parameters: scale not given: the % may be the effect or the level left
[9] = Metabolic stability in human liver microsomes assessed as extraction ratio at 1 uM; type: ADME, Microsome
[10] = Inhibition of chymotrypsin-like activity of human 20S proteasome beta 5 subunit by proteasome active site ELISA

SMILES	IC50 [1]	IC50 [2]	Activity (Mus musculus [3])	IC50 [4]	IC50 [5]	remaining at 0.25 h, 4 µM [6]	hepatic extraction ratio at 1 µM [7]	Activity (Mus musculus [8])	hepatic extraction ratio at 1 µM [9]	IC50 [10]
Cc1cc(C(=O)N[C@@H](Cc2cccnc2)C(=O)N[C@@H](Cc2ccccc2)C(=O)N[C@@H](CC(C)C)C(=O)[C@@]2(C)CO2)no1	1.6 nM	27 nM	70%	39 nM	543 nM	90%				
Cc1cc(C(=O)N[C@@H](Cc2ccncc2)C(=O)N[C@@H](Cc2ccccc2)C(=O)N[C@@H](CC(C)C)C(=O)[C@@]2(C)CO2)no1	2.8 nM	8.6 nM	28%	8.6 nM	271 nM	90%				
CC(C)C[C@H](NC(=O)c1ccoc1)C(=O)N[C@@H](Cc1ccccc1)C(=O)N[C@@H](CC(C)C)C(=O)[C@@]1(C)CO1	34 nM	116 nM		54 nM	125 nM					
CC(C)C[C@H](NC(=O)c1ncc[nH]1)C(=O)N[C@@H](Cc1ccccc1)C(=O)N[C@@H](CC(C)C)C(=O)[C@@]1(C)CO1	107 nM	271 nM		136 nM	> 1000 nM					
CC(C)C[C@H](NC(=O)c1ccnnc1)C(=O)N[C@@H](Cc1ccccc1)C(=O)N[C@@H](CC(C)C)C(=O)[C@@]1(C)CO1	12 nM	50 nM		18 nM	> 1000 nM					
COCc1cc(C(=O)N[C@@H](CC(C)C)C(=O)N[C@@H](Cc2ccccc2)C(=O)N[C@@H](CC(C)C)C(=O)[C@@]2(C)CO2)no1	1.2 nM	8.1 nM		23 nM	28 nM					
CC[C@H](NC(=O)[C@H](COC)NC(=O)c1cc(C)on1)C(=O)N[C@@H](CC(C)C)C(=O)[C@@]1(C)CO1	54 nM	248 nM		92 nM	468 nM	100%	0.47 dimensionless ratio	90%		
CC(C)C[C@H](NC(=O)c1ccncc1)C(=O)N[C@@H](Cc1ccccc1)C(=O)N[C@@H](CC(C)C)C(=O)[C@@]1(C)CO1	20 nM	55 nM		33 nM	> 1000 nM					
CC(C)C[C@H](NC(=O)[C@H]1CCCO1)C(=O)N[C@@H](Cc1ccccc1)C(=O)N[C@@H](CC(C)C)C(=O)[C@@]1(C)CO1	34 nM	154 nM		69 nM	110 nM					
COC[C@H](NC(=O)c1cc(CN2CCOCC2)on1)C(=O)N[C@@H](Cc1ccccc1)C(=O)N[C@@H](CC(C)C)C(=O)[C@@]1(C)CO1	5.7 nM	26 nM	57%	13 nM	147 nM	80%				
Cc1cc(NC(=O)N[C@@H](CC(C)C)C(=O)N[C@@H](Cc2ccccc2)C(=O)N[C@@H](CC(C)C)C(=O)[C@@]2(C)CO2)no1	13 nM	47 nM		182 nM	> 1000 nM					
CC(C)C[C@H](NC(=O)[C@H](Cc1ccccc1)NC(=O)CN1CCOCC1)C(=O)[C@@]1(C)CO1	> 1000 nM	> 1000 nM		> 1000 nM	> 1000 nM					
CC(C)C[C@H](NC(=O)c1cc(C(C)C)on1)C(=O)N[C@@H](Cc1ccccc1)C(=O)N[C@@H](CC(C)C)C(=O)[C@@]1(C)CO1	6.3 nM	17 nM		63 nM	30 nM					
CC(C)C[C@H](NC(=O)c1cnco1)C(=O)N[C@@H](Cc1ccccc1)C(=O)N[C@@H](CC(C)C)C(=O)[C@@]1(C)CO1	27 nM	84 nM		159 nM	505 nM					
COC[C@H](NC(=O)c1cc(C)on1)C(=O)N[C@@H](Cc1ccsc1)C(=O)N[C@@H](CC(C)C)C(=O)[C@@]1(C)CO1	9.2 nM	46 nM		25 nM	181 nM	90%	0.95 dimensionless ratio	117%	0.87 dimensionless ratio	
Cc1cc(C(=O)N[C@@H](Cc2ccccn2)C(=O)N[C@@H](Cc2ccccc2)C(=O)N[C@@H](CC(C)C)C(=O)[C@@]2(C)CO2)no1	13 nM	78 nM	23%	45 nM	219 nM	20%				
CC(C)C[C@H](NC(=O)[C@H](Cc1ccccc1)NC(=O)[C@H](Cc1cscn1)NC(=O)c1cc(CN2CCOCC2)on1)C(=O)[C@@]1(C)CO1	6.9 nM	59 nM	93%	7.9 nM	841 nM	15%				
CC(C)C[C@H](NC(=O)c1nccn1C)C(=O)N[C@@H](Cc1ccccc1)C(=O)N[C@@H](CC(C)C)C(=O)[C@@]1(C)CO1	122 nM	161 nM		67 nM	164 nM					

SMILES	IC50 [1]	IC50 [2]	Activity (Mus musculus [3])	IC50 [4]	IC50 [5]	remaining at 0.25 h, 4 µM [6]	hepatic extraction ratio at 1 µM [7]	Activity (Mus musculus [8])	hepatic extraction ratio at 1 µM [9]	IC50 [10]
COC[C@H](NC(=O)c1cc(C)on1)C(=O)N[C@@H](CC1CCCCC1)C(=O)N[C@@H](CC(C)C)C(=O)[C@@]1(C)CO1	13 nM	78 nM		210 nM	353 nM	75%	0.96 dimensionless ratio	56%	0.94 dimensionless ratio	
COC[C@H](NC(=O)c1cc(C)on1)C(=O)N[C@@H](CC#N)C(=O)N[C@@H](CC(C)C)C(=O)[C@@]1(C)CO1	40 nM	91 nM		29 nM	941 nM	100%	0.28 dimensionless ratio	40%		
COCC[C@H](NC(=O)c1cc(CN2CCOCC2)on1)C(=O)N[C@@H](Cc1ccccc1)C(=O)N[C@@H](CC(C)C)C(=O)[C@@]1(C)CO1	19 nM	42 nM	81%	24 nM	1140 nM	90%				
COC[C@H](NC(=O)c1cc(C)on1)C(=O)N[C@@H](Cc1cscn1)C(=O)N[C@@H](CC(C)C)C(=O)[C@@]1(C)CO1	16 nM	25 nM		17 nM	367 nM	100%	0.86 dimensionless ratio	39%	0.85 dimensionless ratio	
CC(C)C[C@H](NC(=O)c1cccs1)C(=O)N[C@@H](Cc1ccccc1)C(=O)N[C@@H](CC(C)C)C(=O)[C@@]1(C)CO1	10 nM	40 nM		34 nM	120 nM					
CC(C)C[C@H](NC(=O)[C@H](Cc1ccccc1)NC(=O)[C@H](Cc1ccncc1)NC(=O)c1cc(CN2CCOCC2)on1)C(=O)[C@@]1(C)CO1	5.1 nM	14 nM	96%	8.7 nM	> 1000 nM	60%				
CC(C)C[C@H](NC(=O)c1ccon1)C(=O)N[C@@H](Cc1ccccc1)C(=O)N[C@@H](CC(C)C)C(=O)[C@@]1(C)CO1	7.4 nM	50 nM		73 nM	123 nM					
CC(C)C[C@H](NC(=O)[C@@H]1CCCO1)C(=O)N[C@@H](Cc1ccccc1)C(=O)N[C@@H](CC(C)C)C(=O)[C@@]1(C)CO1	42 nM	180 nM		130 nM	159 nM					
CC(C)C[C@H](NC(=O)c1ccn(C)n1)C(=O)N[C@@H](Cc1ccccc1)C(=O)N[C@@H](CC(C)C)C(=O)[C@@]1(C)CO1	76 nM	290 nM		137 nM	205 nM					
CC(C)C[C@H](NC(=O)[C@H](Cc1ccccc1)NC(=O)[C@H](Cc1ccccn1)NC(=O)c1cc(CN2CCOCC2)on1)C(=O)[C@@]1(C)CO1	5.2 nM	31 nM	92%	11 nM	421 nM	20%				
CC(C)C[C@H](NC(=O)c1cnccn1)C(=O)N[C@@H](Cc1ccccc1)C(=O)N[C@@H](CC(C)C)C(=O)[C@@]1(C)CO1	752 nM	> 1000 nM		> 1000 nM	> 1000 nM					
CC(C)C[C@H](NC(=O)c1ccno1)C(=O)N[C@@H](Cc1ccccc1)C(=O)N[C@@H](CC(C)C)C(=O)[C@@]1(C)CO1	5.8 nM	65 nM		58 nM	82 nM					
COCC[C@H](NC(=O)c1cc(C)on1)C(=O)N[C@@H](Cc1ccccc1)C(=O)N[C@@H](CC(C)C)C(=O)[C@@]1(C)CO1	26 nM	69 nM	47%	164 nM	286 nM	80%				
CC(C)C[C@H](NC(=O)c1cc[nH]n1)C(=O)N[C@@H](Cc1ccccc1)C(=O)N[C@@H](CC(C)C)C(=O)[C@@]1(C)CO1	36 nM	188 nM		109 nM	> 1000 nM					
COC[C@H](NC(=O)c1cc(C)on1)C(=O)N[C@@H](CC(C)C)C(=O)N[C@@H](CC(C)C)C(=O)[C@@]1(C)CO1	20 nM	41 nM		45 nM	366 nM	90%	0.45 dimensionless ratio	37%	0.83 dimensionless ratio	
CC(C)C[C@H](NC(=O)[C@H](Cc1ccccc1)NC(=O)c1cnccn1)B(O)O [BORTEZOMIB]										8.7 nM
COC[C@H](NC(=O)c1cc(C)on1)C(=O)N[C@H](C(=O)N[C@@H](CC(C)C)C(=O)[C@@]1(C)CO1)C(C)C	44 nM	147 nM		57 nM	636 nM	95%	0.79 dimensionless ratio	12%	0.63 dimensionless ratio	

Reference: ChEMBL document CHEMBL1138457, “Design and synthesis of an orally bioavailable and selective peptide epoxyketone proteasome inhibitor (PR-047)” (J Med Chem, 2009)
